Results from patent publication US20120220603A1, “SUBSTITUTED HETEROCYCLIC DERIVATIVES FOR THE TREATMENT OF PAIN AND EPILEPSY” (ZALICUS PHARMACEUTICALS LTD., priority 2009, published 2012).

How the values were obtained:
human Nav1.5 channel = biological target: T1, human Nav1.5 channel (Homo sapiens, UniProt Q14524); experiment: NaV1.5 sodium channel screening assay, PatchXpress automated electrophysiology, cardiac action potential waveform 1 Hz; assay type: cell-based; details: cardiac action potential waveform at 1 Hz; HEK cells; read-out: HNAv 1.5 Cardiac AP 1 Hz IC50
T1 construct: expressed in transfected cells; host or cells: HEK cells
Protocol: Inhibition of the TTX-resistant NaV1.5 sodium channel, a key cardiac ion channel, can have profound effects on the duration and amplitude of the cardiac action potential and can result in arrhythmias and other heart malfunctions. To assess the potential cardiac liability of compounds at an early stage in the drug discovery process, a NaV1.5 sodium channel screening assay is performed on Molecular Device's PatchXpress™ automated electrophysiology platform. Under voltage-calmp conditions, NaV1.5 currents were recorded from HEK cells expressing the human Nav1.5 channel in the absence and presence of increasing concentrations of the test compound to obtain an IC50 value. The external recording solution contained (in mM): 90 TEACl, 50 NaCl, 1.8 CaCl, 1 MgCl2, 10 HEPES, 10 glucose, adjusted to pH 7.4 with TEA-OH and to 300 mOsm with sucrose (if necessary), while the internal patch pipette solution contained (in mM): 129 CsF, 2 MgCl2, 11 EGTA, 10 HEPES, 3 Na2ATP adjusted to pH 7.2 with CsOH and to 290 mOsm with sucrose (if necessary). NaV1.5 channel currents were evoked using a cardiac action potential waveform at 1 Hz, digitized at 31.25 kHz and low-pass filtered at 12 kHz.

[1] = system: Rat SNL tactile allodynia; experiment: L5/L6 spinal nerve ligation (SNL) Chung pain model, tactile allodynia (von Frey); assay type: in vivo
Description: The Spinal Nerve Ligation is an animal model representing peripheral nerve injury generating a neuropathic pain syndrome. In this model experimental animals develop the clinical symptoms of tactile allodynia and hyperalgesia. L5/L6 Spinal nerve ligation (SNL) injury was induced using the procedure of Kim and Chung (Kim et al., Pain 50:355-363 (1992)) in male Sprague-Dawley rats (Harlan; Indianapolis, Ind.) weighing 200 to 250 grams.
Anaesthesia was induced with 2% isofluorane in O2 at 2 L/min and maintained with 0.5% isofluorane in O2. Rats were then shaved and aseptically prepared for surgeries. A 2 cm paraspinal incision was made at the level of L4-S2. L4/L5 was exposed by removing the transverse process above the nerves with a small rongeur. The L5 spinal nerve is the larger of the two visible nerves below the transverse process and lies closest to the spine. The L6 spinal nerve is located beneath the corner of the slope bone. A home-made glass Chung rod was used to hook L5 or L6 and a pre-made slip knot of 4.0 silk suture was placed on the tip of the rod just above the nerve and pulled underneath to allow for the tight ligation. The L5 and L6 spinal nerves were tightly ligated distal to the dorsal root ganglion. The incision was closed, and the animals were allowed to recover for 5 days.
Sham control rats underwent the same operation and handling as the experimental animals, but without SNL.
Prior to initiating drug delivery, baseline behavioural testing data is obtained. At selected times after infusion of the Test or Control Article behavioural data can then be collected again.
The assessment of tactile allodynia consisted of measuring the withdrawal threshold of the paw ipsilateral to the site of nerve injury in response to probing with a series of calibrated von Frey filaments (innocuous stimuli). Animals were acclimated to the suspended wire-mesh cages for 30 min before testing. Each von Frey filament was applied perpendicularly to the plantar surface of the ligated paw of rats for 5 sec. A positive response was indicated by a sharp withdrawal of the paw. For rats, the first testing filament is 4.31. Measurements were taken before and after administration of test articles. […] The protocol was repeated until three changes in behaviour were determined (“up and down” method) (Chaplan et al., J. Neurosci. Methods 53:55-63 (1994)). The 50% paw withdrawal threshold was determined as (10^[Xf+kδ])/10,000, where Xf=the value of the last von Frey filament employed, k=Dixon value for the positive/negative pattern, and S=the logarithmic difference between stimuli. The cut-off values for rats were no less than 0.2 g and no higher than 15 g (5.18 filament); for mice no less than 0.03 g and no higher than 2.34 g (4.56 filament). A significant drop of the paw withdrawal threshold compared to the pre-treatment baseline is considered tactile allodynia. […]

[2] = system: Lamina I/II spinal cord neurons; experiment: Lamina assay: current-clamp recordings on lamina I/II spinal cord neurons; assay type: cell-based, rat; details: Lamina I and II; for % Spike Change (Mean; % change from control): tonic firing neurons, current-clamp
Description: Male Wistar rats (P6 to P9 for voltage-clamp and P15 to P18 for current-clamp recordings) were anaesthetized through intraperitoneal injection of Inactin (Sigma). The spinal cord was then rapidly dissected out and placed in an ice-cold solution protective sucrose solution containing (in mM): 50 sucrose, 92 NaCl, 15 D-Glucose, 26 NaHCO3, 5 KCl, 1.25 NaH2PO4, 0.5 CaCl2, 7 MgSO4, 1 kynurenic acid, and bubbled with 5% CO2/95% O2. The meninges, dura, and dorsal and ventral roots were then removed from the lumbar region of the spinal cord under a dissecting microscope. The “cleaned” lumbar region of the spinal cord was glued to the vibratome stage and immediately immersed in ice cold, bubbled, sucrose solution. For current-clamp recordings, 300 to 350 μm parasagittal slices were cut to preserve the dendritic arbour of lamina I neurons, while 350 to 400 μm transverse slices were prepared for voltage-clamped […] channel recordings. Slices were allowed to recover for 1 hour at 35° C. in Ringer solution containing (in mM): 125 NaCl, 20 D-Glucose, 26 NaHCO3, 3 KCl, 1.25 NaH2PO4, 2 CaCl2, 1 MgCl2, 1 kynurenic acid, 0.1 picrotoxin, bubbled with 5% CO2/95% O2. The slice recovery chamber was then returned to room temperature (20 to 22° C.) and all recordings were performed at this temperature.
Neurons were visualized using IR-DIC optics (Zeiss Axioskop 2 FS plus, Gottingen, Germany), and neurons from lamina I and the outer layer of lamina II were selected based on their location relative to the substantia gelatinosa layer. Neurons were patch-clamped using borosilicate glass patch pipettes with resistances of 3 to 6 MΩ. Current-clamp recordings of lamina I/II neurons in the intact slice, the external recording solution was the above Ringer solution, while the internal patch pipette solution contained (in mM): 140 KGluconate, 4 NaCl, 10 HEPES, 1 EGTA, 0.5 MgCl2, 4 MgATP, 0.5 Na2GTP, adjusted to pH 7.2 with 5 M KOH and to 290 mOsm with D-Mannitol (if necessary). Only tonic firing neurons were selected for current-clamp experiments, while phasic, delayed onset and single spike neurons were discarded (22). Recordings were digitized at 50 kHz and low-pass filtered at 2.4 kHz.

[3] = Rat Early Pharmacokinetic (EPK) study; assay type: in vivo; details: PO, 3 mg/kg, formulation PG (propylene glycol); for Tmax: male, Sprague-Dawley, blood
Protocol: Male Sprague-Dawley rats were dosed via oral (PO) gavage in the detailed formulation. Blood samples were collected from the animals at 6 timepoints out to 4 hours post-dose. Pharmacokinetic analysis was performed on the LC-MS/MS measured concentrations for each timepoint of each compound.

T1 sequence (Q14524 whole entry): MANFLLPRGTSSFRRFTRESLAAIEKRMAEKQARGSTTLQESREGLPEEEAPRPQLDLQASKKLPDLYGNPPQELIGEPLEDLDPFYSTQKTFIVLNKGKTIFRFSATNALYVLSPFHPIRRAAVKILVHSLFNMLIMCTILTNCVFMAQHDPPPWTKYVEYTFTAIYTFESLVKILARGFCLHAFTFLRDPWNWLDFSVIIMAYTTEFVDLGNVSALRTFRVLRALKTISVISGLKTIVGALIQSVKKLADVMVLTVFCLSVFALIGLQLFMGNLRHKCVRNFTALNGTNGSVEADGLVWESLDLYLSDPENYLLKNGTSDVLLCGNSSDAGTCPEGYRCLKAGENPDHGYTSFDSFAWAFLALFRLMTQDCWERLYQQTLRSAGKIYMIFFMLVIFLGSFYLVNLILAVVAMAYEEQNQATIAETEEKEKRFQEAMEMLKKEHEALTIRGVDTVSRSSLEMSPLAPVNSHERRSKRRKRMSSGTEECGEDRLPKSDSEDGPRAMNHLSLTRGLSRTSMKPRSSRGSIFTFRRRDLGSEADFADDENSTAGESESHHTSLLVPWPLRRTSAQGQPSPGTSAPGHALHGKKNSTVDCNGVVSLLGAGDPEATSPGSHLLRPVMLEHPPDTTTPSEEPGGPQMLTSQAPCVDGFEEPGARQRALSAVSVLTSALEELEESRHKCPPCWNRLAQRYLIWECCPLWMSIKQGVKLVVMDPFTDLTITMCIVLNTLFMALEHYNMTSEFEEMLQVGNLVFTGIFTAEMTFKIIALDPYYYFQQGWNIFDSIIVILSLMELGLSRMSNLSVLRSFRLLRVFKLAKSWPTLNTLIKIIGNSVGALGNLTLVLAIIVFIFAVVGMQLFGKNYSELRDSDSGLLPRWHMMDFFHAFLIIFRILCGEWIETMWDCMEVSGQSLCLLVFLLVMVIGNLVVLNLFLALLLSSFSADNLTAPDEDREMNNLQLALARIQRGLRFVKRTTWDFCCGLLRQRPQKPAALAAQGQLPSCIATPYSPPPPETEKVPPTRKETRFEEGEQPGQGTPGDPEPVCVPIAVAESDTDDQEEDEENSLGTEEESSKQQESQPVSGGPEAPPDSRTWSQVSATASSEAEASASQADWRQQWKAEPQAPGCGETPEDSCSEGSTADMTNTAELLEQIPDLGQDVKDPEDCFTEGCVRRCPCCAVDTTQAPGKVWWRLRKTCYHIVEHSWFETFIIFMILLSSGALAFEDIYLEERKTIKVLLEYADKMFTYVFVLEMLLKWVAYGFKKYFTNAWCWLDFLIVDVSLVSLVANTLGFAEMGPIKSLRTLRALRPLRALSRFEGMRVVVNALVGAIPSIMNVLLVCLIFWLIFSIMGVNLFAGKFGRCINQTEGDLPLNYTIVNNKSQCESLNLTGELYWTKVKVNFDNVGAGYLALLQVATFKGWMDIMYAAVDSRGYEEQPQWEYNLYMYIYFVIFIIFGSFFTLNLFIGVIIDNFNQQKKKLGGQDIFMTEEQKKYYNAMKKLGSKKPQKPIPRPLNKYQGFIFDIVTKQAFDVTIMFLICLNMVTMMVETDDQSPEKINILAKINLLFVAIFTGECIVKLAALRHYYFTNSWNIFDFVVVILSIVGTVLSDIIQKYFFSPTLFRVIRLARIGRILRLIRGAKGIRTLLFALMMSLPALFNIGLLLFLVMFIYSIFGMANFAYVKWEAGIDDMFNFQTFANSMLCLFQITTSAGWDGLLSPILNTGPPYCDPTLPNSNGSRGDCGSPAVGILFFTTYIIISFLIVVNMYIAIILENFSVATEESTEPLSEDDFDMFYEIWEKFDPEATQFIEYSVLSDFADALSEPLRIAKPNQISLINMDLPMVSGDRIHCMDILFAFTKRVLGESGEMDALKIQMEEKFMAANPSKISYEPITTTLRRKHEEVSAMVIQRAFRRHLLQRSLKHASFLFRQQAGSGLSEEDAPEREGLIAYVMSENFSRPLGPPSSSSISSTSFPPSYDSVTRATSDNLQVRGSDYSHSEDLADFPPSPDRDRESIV

Structure (SMILES): O=C(CN1CCNCC1=O)Nc1cc(C(F)(F)F)cc(C(F)(F)F)c1 [Compound 1, N-(3,5-bis(trifluoromethyl)phenyl)-2-(2-oxopiperazin-1-yl)acetamide]
- IC50 (human Nav1.5 channel): 100 µM
- Rat SNL Tactile Allodynia (% Antiallodynia) ([1]; 1 hour): 52%
- Rat SNL Tactile Allodynia (% Antiallodynia) ([1]; 2 hours): 55%
- Rat SNL Tactile Allodynia (% Antiallodynia) ([1]; 4 hours): 37%
- % Spike Change (Mean; % change from control) [2]: −47.3%
- EC50 ([2]; Rattus norvegicus, Neuron): 0.482 µM
- Dose Normalized AUC [3]: 1,118 nM*h
- Dose Normalized Cmax [3]: 438 nM
- Tmax [3]: 15 min

Structure (SMILES): O=C1CN(CC(=O)Nc2cc(C(F)(F)F)cc(C(F)(F)F)c2)CCN1 [Compound 9, N-(3,5-bis(trifluoromethyl)phenyl)-2-(3-oxopiperazin-1-yl)acetamide]
- IC50 (human Nav1.5 channel): 80 µM
- Rat SNL Tactile Allodynia (% Antiallodynia) ([1]; 1 hour): 36%
- Anti-allodynia in rat SNL tactile allodynia (in words) ([1]; at 60 minutes compared to baseline and post-SNL): significant anti-allodynia
- % Spike Change (Mean; % change from control) [2]: −35.5%
- Dose Normalized AUC [3]: 1,120 nM*h
- Dose Normalized Cmax [3]: 484 nM
- Tmax [3]: 84 min
